{
  "source": "patent US20240238076A1",
  "about": "“PROCESS FOR PRODUCING VASCULAR PROSTHESES” (Medizinische Universität Wien, priority 2021, published 2024)",
  "test_system": "HUVECs",
  "assay": "XTT cytotoxicity test with HUVEC cultures",
  "format": "cell-based, human",
  "conditions": "24 h incubation, 10-fold dilution series from 450 μmol/ml",
  "method": "Human umbilical vein endothelial cells (HUVEC, pooled donator, Lonza, Switzerland) were cultivated in endothelial growth medium (EGM-2, Lonza, Switzerland) supplemented with 10% of FBS. The exchange of medium was conducted every other day. The cells were used for the experiments between passage 3 and 6.\nXTT (2,3-bis(2-methoxy-4-nitro-5-sulfophenyl)-5-[(phenylamino)carbonyl)-2H-tetrazoliumhydroxide) can be reduced to a formazan product in viable cells. The result can be determined by photometric measurements and correlated with the number of viable cells. The assay was conducted based on ISO10993-5.\nHUVECs or macrophages were seeded on the polymer disks at a cell number of 10,000 cells/disk in a 96 well plate for 24 h until a confluent cell layer was formed. XTT powder was dissolved in a cell culture medium with 60° C. at a concentration of 1 mg/ml. PMS (phenazine methosulfate, Sigma-Aldrich, USA) was dissolved in PBS at a concentration of 5 mM. For preparing a working solution, which was added to cells, PMS was pipetted into the XTT solution at a concentration of 25 μM. The cells were incubated with 50 μl of this XTT working solution for 4 h at 37° C. in a cell culture incubator. The medium was then transferred to a new 96 well plate, and absorption at 450 nm was measured with a reference wavelength of 620 nm. The results are shown in FIG. 9 as mean values of three determinations. […]",
  "data": [
    {"smiles": "CC(C)(C)NCCNC(C)(C)C", "note": "[TBEDA, N,N′-di-tert-butylethylenediamine]", "values": [
      {"measurement": "Concentration from which the viability of HUVECs was at an acceptable level", "value": 45000, "unit": "µM"}
    ]}
  ]
}
